In brackets after ≈: the same amount, converted by molar mass. Like-named read-outs stand apart in the source and are kept apart here.
Columns and labels:
[1] = system: MRSA clinical isolate OU6; assay: Clinical laboratory susceptibility (MicroScan), MRSA isolate 6; assay type: cell-based, S. aureus; details: MicroScan PC33 gram positive panel
[2] = system: MRSA clinical isolate OU11; assay: Clinical laboratory susceptibility (MicroScan), MRSA isolate 11; assay type: cell-based, S. aureus; details: MicroScan PC33 gram positive panel
[3] = system: MRSA USA 300 ATCC 1717; assay: Checkerboard MIC assay against MRSA USA300 (Example 1); assay type: cell-based, Staphylococcus aureus; details: MRSA USA300; for MIC: Staphylococcus aureus, agent alone, read-out: MIC of antibiotic only
[4] = system: PA OU15; assay: Checkerboard assay, PA OU15; assay type: cell-based, Pseudomonas aeruginosa; details: Pseudomonas aeruginosa, PA OU15
Method: (§1) Cells were grown at 35° C. with shaking. The OD600 (optical density at 600 nm) was monitored and recorded for each sample over 24 hr. Each checkerboard trial was done in triplicate using sterile Greiner CellStar™ flat bottom polystyrene plates, catalog #655180. Each growth curve was done in duplicate.

[5] = system: PA OU19; assay: Checkerboard assay, PA OU19; assay type: cell-based, Pseudomonas aeruginosa; details: Pseudomonas aeruginosa, PA OU19
Method: as §1

[6] = system: PA OU22; assay: Checkerboard assay, PA OU22; assay type: cell-based, Pseudomonas aeruginosa; details: Pseudomonas aeruginosa, PA OU22
Method: as §1

[7] = system: S. epidermidis ATCC 12228 (MSSE 12228); assay: MIC/potentiation against MSSE 12228; assay type: cell-based, Staphylococcus epidermidis; details: for MIC of antibiotic only: agent alone
[8] = system: S. epidermidis ATCC 35984 (MRSE 35984); assay: MIC/potentiation against MRSE 35984 (Example 1); assay type: cell-based, Staphylococcus epidermidis; details: for MIC of antibiotic only: agent alone
[9] = system: clinical isolates OU15, OU19, and OU22; assay: Checkerboard assay, isolates OU15, OU19 and OU22 reported together; assay type: cell-based, Pseudomonas aeruginosa; details: for MIC: Pseudomonas aeruginosa; for interaction with BPEI600: isolates OU15, OU19, OU22 (data not shown)
Method: as §1

[10] = system: MRSA 43300 biofilms; assay: MBEC assay (MICCP and MBEC), MRSA 43300; assay type: cell-based, Staphylococcus aureus
Method: (§2) Bacterial culture was inoculated in an MBEC pronged-inoculator and incubated for 24 hr to allow biofilm formation. […] The change in optical density at 600 nm (Δ OD600) was measured. Minimum inhibitory concentration (MIC) of each drug is determined as the lowest concentration that inhibited cell growth (ΔOD600<0.05). Fractional inhibitory concentration index (FICI) was calculated as: […]
(§3) Synergistic effects are determined using EUCAST guidelines: synergy (FICI≤0.5), additivity (0.5<FICI<1), and indifference (FICI>1). The treated pronged-inoculator was then washed and transferred to a recovery plate with 200 μL MHB/well to sonicate and recover any remaining biofilm bacteria. The recovery plate was then incubated overnight before measuring ΔOD600 to determine MBECs and FICIs of the drugs tested on the biofilms.
(§4) MBEC assays were utilized on MRSA OU6 and MRSA OU11 and a lab strain MRSA ATCC 43300. The MRSA bacteria were used to inoculate a 96-well inoculation plate, where MRSA biofilms were grown on prongs protruding from the plate lid, known as the MBEC inoculator lid and based on the Calgary biofilm device. […] The final step was moving the treated inoculation lid to a third plate (the recovery plate) containing growth-media only and using sonication to dislodge the biofilm and recover cells remaining in the biofilm. In this manner, the synergy of BPEI and ampicillin against MRSA biofilms was evaluated. Standard CLSI (Clinical & Laboratory Standards Institute) guidelines describe a standard MIC assay using 96-well plates inoculated with a standard cell density, usually ˜10^6 CFU/mL. However, the MIC data reported here is non-standard because, rather than inoculation via micropipette transfer from an overnight culture, inoculation of the challenge plate occurs from the biofilm-coated inoculation lid where treatment challenge disrupts the protective biofilm EPS matrix. […] The MBEC is determined from cell growth in the recovery plate and reflects the ability of BPEI600, ampicillin, or its combinations to kill the biofilm remaining attached to the prongs of the inoculation lid. […]

[11] = system: MRSA OU6 biofilms; assay: MBEC assay (MICCP and MBEC), MRSA OU6; assay type: cell-based, Staphylococcus aureus
Method: as §2, §3, §4

[12] = system: MRSA OU11 biofilms; assay: MBEC assay (MICCP and MBEC), MRSA OU11; assay type: cell-based, Staphylococcus aureus
Method: as §2, §3, §4

[13] = read-out: cefepime MIC with 16 μg/mL of BPEI600

Q: What does the source list for Gentamicin?
A: MIC [1]: ≤ 4 µg/mL; MIC [2]: ≤ 4 µg/mL

Q: With `CO/N=C(\C(=O)N[C@@H]1C(=O)N2C(C(=O)[O-])=C(C[N+]3(C)CCCC3)CS[C@H]12)c1csc(N)n1` [cefepime] as the compound, how does the “MIC with 4 μg/ml (6.75 μM) 600-Da BPEI” value [3] read?
A: The value was 1 µg/mL.

Q: And the MIC [3]?
A: Its MIC is 4 µg/mL.

Q: What about the MIC [4, 13] of the same compound?
A: Its MIC is 0.5 µg/mL.

Q: What about the MIC ([4]; agent alone, read-out: MIC) of the same compound?
A: The MIC was 32 µg/mL.

Q: What about the MIC [5, 13] of the same compound?
A: The MIC was 8 µg/mL.

Q: And the MIC ([5]; agent alone, read-out: MIC)?
A: The MIC was 64 µg/mL.

Q: What about the MIC [6, 13] of the same compound?
A: Its MIC is 8 µg/mL.

Q: And the MIC ([6]; agent alone, read-out: MIC)?
A: The MIC was 128 µg/mL.

Q: Which results are given for `CN[C@H](CC(C)C)C(=O)N[C@H]1C(=O)N[C@@H](CC(N)=O)C(=O)N[C@H]2C(=O)N[C@H]3C(=O)N[C@H](C(=O)N[C@H](C(=O)O)c4cc(O)cc(O)c4-c4cc3ccc4O)[C@H](O)c3ccc(c(Cl)c3)Oc3cc2cc(c3O[C@@H]2O[C@H](CO)[C@@H](O)[C@H](O)[C@H]2O[C@H]2C[C@](C)(N)[C@H](O)[C@H](C)O2)Oc2ccc(cc2Cl)[C@H]1O` [vancomycin]?
A: MIC, antibiotic + 2 μg/ml (3.375 μM) 600-Da BPEI [7]: 1 µg/mL; MIC, antibiotic + 4 μg/ml (6.75 μM) 600-Da BPEI [7]: 1 µg/mL; MIC of antibiotic only [7]: 1 µg/mL; MIC, antibiotic + 2 μg/ml (3.375 μM) 600-Da BPEI [8]: 2 µg/mL; MIC, antibiotic + 4 μg/ml (6.75 μM) 600-Da BPEI [8]: 0.5 µg/mL; MIC of antibiotic only [8]: 2 µg/mL; MIC [1]: 2 µg/mL (≈ 1.38 µM); MIC [2]: 1 µg/mL (≈ 0.69 µM)

Q: Which MIC ([9]; isolates OU15, OU19, OU22, agent alone (data not shown), read-out: MIC) does the source give for `C[C@@H](O)[C@H]1C(=O)N2C(C(=O)O)=C(S[C@@H]3CN[C@H](C(=O)N(C)C)C3)[C@H](C)[C@H]12` [meropenem] here?
A: The MIC was 16 to 64 µg/mL.

Q: And the “interaction with BPEI600” value [9]?
A: Its value is “no synergy (no synergy (FICI≥1))”.

Q: How did the “MIC, antibiotic + 32 μg/ml (20 μM) PEG1000BPEI600” value [3] turn out when `CO/N=C(\C(=O)N[C@@H]1C(=O)N2C(C(=O)O)=CCS[C@H]12)c1csc(N)n1` [ceftizoxime] was run?
A: The value was 8 µg/mL.

Q: What about the “MIC, antibiotic + 64 μg/ml (40 μM) PEG1000BPEI600” value [3] of the same compound?
A: The value was 0.5 µg/mL.

Q: And the MIC [3]?
A: The MIC was 128 µg/mL.

Q: Which “MIC with 4 μg/ml (6.75 μM) 600-Da BPEI” value [3] does the source give for `CC1=C(C(=O)O)N2C(=O)[C@@H](NC(=O)[C@H](N)c3ccccc3)[C@H]2SC1` [cephalexin] here?
A: The value was 0.5 µg/mL.

Q: What about the MIC [3] of the same compound?
A: The MIC was 2 µg/mL.

Q: Which MICCP ([10]; MRSA 43300, challenge plate, agent alone) does the source give for `CC1(C)S[C@@H]2[C@H](NC(=O)[C@H](N)c3ccccc3)C(=O)N2[C@H]1C(=O)O` [ampicillin] here?
A: Its MICCP is 128 µg/mL.

Q: What about the “Ampicillin MBEC + 64 μg/mL BPEI” value ([10]; MRSA 43300 biofilm) of the same compound?
A: The value was 2 µg/mL.

Q: And the MBEC ([10]; MRSA 43300 biofilm, agent alone)?
A: Its MBEC is over 256 µg/mL.

Q: And the MICCP ([11]; MRSA OU6, challenge plate, agent alone)?
A: The MICCP was 256 µg/mL.

Q: And the “Ampicillin MBEC + 64 μg/mL BPEI” value ([11]; MRSA OU6 biofilm)?
A: The value was 64 µg/mL.

Q: And the MBEC ([11]; MRSA OU6 biofilm, agent alone)?
A: The MBEC was over 256 µg/mL.

Q: And the MICCP ([12]; MRSA OU11, challenge plate, agent alone)?
A: Its MICCP is 128 µg/mL.

Q: What about the “Ampicillin MBEC + 64 μg/mL BPEI” value ([12]; MRSA OU11 biofilm) of the same compound?
A: The value was 32 µg/mL.

Q: And the MBEC ([12]; MRSA OU11 biofilm, agent alone)?
A: The MBEC was over 256 µg/mL.

Q: What does the source list for `CN(C)[C@@H]1C(O)=C(C(N)=O)C(=O)[C@@]2(O)C(O)=C3C(=O)c4c(O)cccc4[C@@](C)(O)[C@H]3C[C@@H]12` [Tetracycline]?
A: MIC [1]: ≤ 4 µg/mL; MIC [2]: ≤ 4 µg/mL

Q: `CCCCCCCCCC(=O)N[C@@H](Cc1c[nH]c2ccccc12)C(=O)N[C@H](CC(N)=O)C(=O)N[C@@H](CC(=O)O)C(=O)N[C@@H]1C(=O)NCC(=O)N[C@@H](CCCN)C(=O)N[C@@H](CC(=O)O)C(=O)N[C@H](C)C(=O)N[C@@H](CC(=O)O)C(=O)NCC(=O)N[C@H](CO)C(=O)N[C@@H]([C@H](C)CC(=O)O)C(=O)N[C@@H](CC(=O)c2ccccc2N)C(=O)O[C@@H]1C` [Daptomycin] was tested. Which MIC [1] did it give?
A: The MIC was at most 0.5 µg/mL.

Q: And the MIC [2]?
A: The MIC was at most 0.5 µg/mL.

Q: What does the source list for `CC(=O)NC[C@H]1CN(c2ccc(N3CCOCC3)c(F)c2)C(=O)O1` [linezolid]?
A: MIC with 4 μg/ml (6.75 μM) 600-Da BPEI [3]: 0.5 µg/mL; MIC [3]: 0.5 µg/mL; MIC, antibiotic + 2 μg/ml (3.375 μM) 600-Da BPEI [7]: 0.25 µg/mL; MIC, antibiotic + 4 μg/ml (6.75 μM) 600-Da BPEI [7]: 0.25 µg/mL; MIC of antibiotic only [7]: 0.25 µg/mL; MIC, antibiotic + 2 μg/ml (3.375 μM) 600-Da BPEI [8]: 0.5 µg/mL; MIC, antibiotic + 4 μg/ml (6.75 μM) 600-Da BPEI [8]: 0.25 µg/mL; MIC of antibiotic only [8]: 1 µg/mL; MIC [1]: 2 µg/mL (≈ 5.93 µM); MIC [2]: 2 µg/mL (≈ 5.93 µM)

Q: How did the MIC [1] turn out when `CCC[C@@H]1C[C@@H](C(=O)N[C@@H]([C@H]2O[C@H](SC)[C@H](O)[C@@H](O)[C@H]2O)[C@H](C)Cl)N(C)C1` [Clindamycn] was run?
A: The MIC was over 4 µg/mL.

Q: And the MIC [2]?
A: The MIC was over 4 µg/mL.

Q: Which MIC [1] does the source give for `CC[C@H]1OC(=O)[C@H](C)[C@@H](O[C@H]2C[C@@](C)(OC)[C@@H](O)[C@H](C)O2)[C@H](C)[C@@H](O[C@@H]2O[C@H](C)C[C@H](N(C)C)[C@H]2O)[C@](C)(O)C[C@@H](C)C(=O)[C@H](C)[C@@H](O)[C@]1(C)O` [Erythromycin] here?
A: Its MIC is over 4 µg/mL.

Q: And the MIC [2]?
A: Its MIC is over 4 µg/mL.

Q: What about the MIC [9] of the same compound?
A: The MIC was 256 µg/mL.

Q: What about the MIC ([9]; read-out: erythromycin MIC in the presence of 16 μg/mL of BPEI600) of the same compound?
A: Its MIC is 64 µg/mL.

Q: And the “factor of reduction of erythromycin MIC by BPEI600” value ([9]; data not shown)?
A: Its value is 4.

Q: And the “interaction with BPEI600” value [9]?
A: The value was “exhibited synergy”.

Q: Which “MIC with 4 μg/ml (6.75 μM) 600-Da BPEI” value [3] does the source give for `CC1(C)S[C@@H]2[C@H](NC(=O)[C@H](N)c3ccc(O)cc3)C(=O)N2[C@H]1C(=O)O` [amoxicillin] here?
A: The value was 1 µg/mL.

Q: And the MIC [3]?
A: The MIC was 4 µg/mL.

Q: `C[C@@H](O)[C@H]1C(=O)N2C(C(=O)O)=C(SCCN=CN)C[C@H]12` [imipenem] was tested. Which “MIC with 4 μg/ml (6.75 μM) 600-Da BPEI” value [3] did it give?
A: The value was 0.03 µg/mL.

Q: What about the MIC [3] of the same compound?
A: The MIC was 4 µg/mL.

— patent publication US20210260101A1, “POTENTIATED ANTIBIOTIC COMPOSITIONS AND METHODS OF USE FOR TREATING BACTERIAL INFECTIONS AND BIOFILMS” (priority 2018, published 2021)
